# Measurements: patent publication US20230049231A1 (priority 2019, published 2023)
# Biological target: T1, Kv1.3 potassium channel (Homo sapiens, UniProt P22001)
# T1 construct: expressed in transfected cells
# Test: Kv1.3 potassium channel blocker activity, automated whole-cell patch clamp (Patchliner)
# Format: cell-based
# Conditions: CHO-K1 cells stably expressing Kv1.3; 100 ms pulses from -90 mV to +40 mV, 0.1 Hz
# Procedure: This assay is used to evaluate the disclosed compounds' activities as Kv1.3 potassium channel blockers.
# CHO-K1 cells stably expressing Kv1.3 were grown in DMEM containing 10% heat-inactivated FBS, 1 mM sodium pyruvate, 2 mM L-glutamine and G418 (500 μg/ml). Cells were grown in culture flasks at 37° C. in a 5% CO2-humidified incubator.
# The cells were bathed in an extracellular solution containing 140 mM NaCl, 4 mM KCl, 2 mM CaCl2), 1 mM MgCl2, 5 mM glucose, and 10 mM HEPES; pH adjusted to 7.4 with NaOH; 295-305 mOsm. The internal solution contained 50 mM KCl, 10 mM NaCl, 60 mM KF, 20 mM EGTA, and 10 mM HEPES; pH adjusted to 7.2 with KOH; 285 mOsm. All compounds were dissolved in DMSO at 30 mM. Compound stock solutions were freshly diluted with external solution to concentrations of 30 nM, 100 nM, 300 nM, 1 μM, 3 μM, 10 μM, 30 μM and 100 μM. The highest content of DMSO (0.3%) was present in 100 μM.
# The currents were evoked by applying 100 ms depolarizing pulses from −90 mV (holding potential) to +40 mV were applied with 0.1 Hz frequency. Control (compound-free) and compound pulse trains for each compound concentration applied contained 20 pulses.
# 10-second breaks were used between pulse trains (see Table 2 below).
# Whole-cell current recordings and compound application were enabled by means of an automated patch clamp platform Patchliner (Nanion Technologies GmbH). EPC 10 patch clamp amplifier (HEKA Elektronik Dr. Schulze GmbH) along with Patchmaster software (HEKA Elektronik Dr. Schulze GmbH) was used for data acquisition. Data were sampled at 10 kHz without filtering. Passive leak currents were subtracted online using a P/4 procedure (HEKA Elektronik Dr. Schulze GmbH). Increasing compound concentrations were applied consecutively to the same cell without washouts in between. Total compound incubation time before the next pulse train was not longer than 10 seconds. Peak current inhibition was observed during compound equilibration.
# AUC and peak values were obtained with Patchmaster (HEKA Elektronik Dr. Schulze GmbH). To determine IC50, the last single pulse in the pulse train corresponding to a given compound concentration was used. Obtained AUC and peak values in the presence of compound were normalized to control values in the absence of compound. Using Origin (OridinLab), IC50 was derived from data fit to Hill equation: Icompound/Icontrol=(100−A)/(1+([compound]/IC50)nH)+A, where IC50 value is the concentration at which current inhibition is half-maximal, [compound] is the applied compound concentration, A is the fraction of current that is not blocked and nH is the Hill coefficient.
# T1 sequence (P22001 whole entry): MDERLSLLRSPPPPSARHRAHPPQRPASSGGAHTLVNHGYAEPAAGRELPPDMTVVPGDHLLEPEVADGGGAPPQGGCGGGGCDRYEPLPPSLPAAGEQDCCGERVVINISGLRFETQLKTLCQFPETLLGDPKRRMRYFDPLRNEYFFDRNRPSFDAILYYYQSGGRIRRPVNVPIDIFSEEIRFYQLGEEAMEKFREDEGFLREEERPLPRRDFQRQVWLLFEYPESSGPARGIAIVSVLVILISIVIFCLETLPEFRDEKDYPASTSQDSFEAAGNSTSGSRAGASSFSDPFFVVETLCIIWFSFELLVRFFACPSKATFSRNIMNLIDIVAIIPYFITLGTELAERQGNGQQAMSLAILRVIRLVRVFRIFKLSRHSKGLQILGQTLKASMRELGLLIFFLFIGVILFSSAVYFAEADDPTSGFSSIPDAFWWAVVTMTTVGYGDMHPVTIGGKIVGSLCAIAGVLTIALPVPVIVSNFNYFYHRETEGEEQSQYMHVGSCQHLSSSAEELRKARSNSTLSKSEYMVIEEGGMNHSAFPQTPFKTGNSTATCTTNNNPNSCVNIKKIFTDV
row,SMILES,IC50
1,"CO[C@@H](CO)C(=O)N1CC(=O)N2CC[C@@H](c3c(O)ccc(Cl)c3Cl)C[C@H]2C1 [Compound 56, (8R,9aS)-8-(2,3-dichloro-6-hydroxyphenyl)-2-[(2S)-3-hydroxy-2-methoxypropanoyl]-hexahydro-1H-pyrido[1,2-a]pyrazin-4-one]",< 1000 nM
2,"O=C(CCO)N1CC(=O)N2CC[C@H](c3c(O)ccc(Cl)c3Cl)C[C@@H]2C1 [Compound 58, (8S,9aR)-8-(2,3-dichloro-6-hydroxyphenyl)-2-(3-hydroxy-propanoyl)octahydro-4H-pyrido[1,2-a]pyrazin-4-one]",< 1000 nM
3,"C[C@H]1C(=O)N2C[C@@H](c3c(O)ccc(Cl)c3Cl)C[C@H]2CN1C(=O)CO [Compound 60, (3S,7R,8aS)-7-(2,3-dichloro-6-hydroxyphenyl)-2-(2-hydroxyacetyl)-3-methyl-hexahydropyrrolo[1,2-a]pyrazin-4-one]",< 1000 nM

# Same assay, conditions: Kv1.3 potassium channel, whole-cell patch clamp
row,SMILES,IC50
1,"O=C(CO)N1CC[C@@H]2C[C@H](c3c(O)ccc(Cl)c3Cl)CN2C(=O)C1 [Compound 90, (8R,9aS)-8-(2,3-dichloro-6-hydroxyphenyl)-3-(2-hydroxyacetyl)-hexahydro-1H-pyrrolo[1,2-d][1,4]diazepin-5-one]",< 1000 nM
2,"CCN(CC)C(=O)N1CC(=O)N2C[C@@H](c3c(O)ccc(Cl)c3Cl)C[C@H]2C1 [Compound 99, (7R,8aS)-7-(2,3-dichloro-6-hydroxyphenyl)-N,N-diethyl-4-oxo-hexahydropyrro[1,2-a]pyrazine-2-carboxamide]",< 1000 nM
3,"O=C1NCCC1N1CC(=O)N2C[C@@H](c3c(O)ccc(Cl)c3Cl)C[C@H]2C1 (stereo partly drawn) [Compound 109, 3-[(7R,8aS)-7-(2,3-dichloro-6-hydroxyphenyl)-4-oxo-hexahydropyrrolo [1,2-a]pyrazin-2-yl]pyrrolidin-2-one]",< 1000 nM
4,"C=CCN1CC(=O)N2C[C@@H](c3c(O)ccc(Cl)c3Cl)C[C@H]2C1 [Compound 113, (7R,8aS)-7-(2,3-dichloro-6-hydroxyphenyl)-2-(prop-2-en-1-yl)-hexahydropyrrolo [l,2-a]pyrazin-4-one]",< 1000 nM
5,"O=C1CN(c2ccc(CO)cn2)C[C@@H]2C[C@H](c3c(O)ccc(Cl)c3Cl)CN12 [Compound 168, (7R,8aS)-7-(2,3-dichloro-6-hydroxyphenyl)-2-[5-(hydroxymethyl)pyridin-2-yl]-hexahydropyrrolo[1,2-a]pyrazin-4-one]",< 1000 nM
6,"Nc1cnc(N2CC(=O)N3C[C@@H](c4c(O)ccc(Cl)c4Cl)C[C@H]3C2)nc1 [Compound 170, (7R,8aS)-2-(5-aminopyrimidin-2-yl)-7-(2,3-dichloro-6-hydroxyphenyl)-hexahydropyrrolo[1,2-a]pyrazin-4-one]",< 1000 nM
7,O=C1CN(c2ncccc2CO)C[C@@H]2C[C@H](c3c(O)ccc(Cl)c3Cl)CN12 [Compound 174],< 10000 nM
8,"O=C1CCCN1CC1OC[C@@H]2C[C@H](c3c(O)ccc(Cl)c3Cl)CCN2C1=O (stereo partly drawn) [Compound 184, 1-[[(8R,9aS)-8-(2,3-dichloro-6-hydroxyphenyl)-4-oxo-hexahydro-1H-pyrido[2,1-c][1,4]oxazin-3-yl]methyl]pyrrolidin-2-one]",< 10000 nM
9,"CC(=O)NCC1OC[C@@H]2C[C@H](c3c(O)ccc(Cl)c3Cl)CCN2C1=O (stereo partly drawn) [Compound 186, N-[[(8R,9aS)-8-(2,3-dichloro-6-hydroxyphenyl)-4-oxo-hexahydro-1H-pyrido[2,1-c][1,4]oxazin-3-yl]methyl]acetamide]",< 1000 nM
10,"O=C(O)C1CC(=O)N2C[C@@H](c3c(O)ccc(Cl)c3Cl)C[C@H]2C1 (stereo partly drawn) [Compound 229, (2R,8aS)-2-(2,3-dichloro-6-hydroxyphenyl)-5-oxo-hexahydro-1H-indolizine-7-carboxylic acid]",< 1000 nM
11,"O=C1CC[C@@H]2C[C@H](c3c(O)ccc(Cl)c3Cl)CN12 [Compound 244, (6R,7aR)-6-(2,3-dichloro-6-hydroxyphenyl)-hexahydropyrrolizin-3-one]",< 1000 nM
12,"O=C1C(CO)C[C@@H]2C[C@H](c3c(O)ccc(Cl)c3Cl)CN12 (stereo partly drawn) [Compound 247, (6R,7aS)-6-(2,3-dichloro-6-hydroxyphenyl)-2-(hydroxymethyl)-hexahydropyrrolizin-3-one]",< 1000 nM
